We go through five molecules from patent US8236783B2, “ROS-sensitive iron chelators and methods of using the same” (Duke University, priority 2006, dated 2012).

Data set [1] is described as follows: UV-vis spectra of iron complex formation. The class given is physicochemical. The following applies: 60 μM BSIH, 30 μM Fe(NO3)3 in MeOH. The source says:
FIG. 1. […] The expanded view in the inset compares the mono and bis species [Fe(SIH)Cl2(CH3OH)] and [Fe(SIH)2]NO3, respectively.
These two species are distinguishable by a ligand-field band centered at 658 nm that is more pronounced in the mono species compared to the bis species (FIG. 1 inset).

Data set [2] in a line: 2-deoxyribose oxidative degradation assay (hydroxyl radical formation). The following applies: chelator 0-400 μM, 200 μM H2O2, 10 μM FeCl3, 2 mM ascorbic acid, 15 mM deoxyribose, pH 7.4, 60 min at 37° C.
Experimental: Effect of chelator concentration on deoxyribose degradation by OH.. A and A0 are the absorbance at 532 nm in the presence or absence of chelator, respectively. Values below A/Ao=1 indicate protection of deoxyribose. Conditions: 200 μM H2O2, 10 μM FeCl3, 2 mM ascorbic acid, 15 mM deoxyribose in pH 7.4 NaHPO4 buffer.
Values of A/Ao above 1 indicate that the additive promotes OH. formation, whereas values below 1 indicate that the additive either scavenges OH. more efficiently than deoxyribose, or that it inhibits iron-catalyzed OH. formation via effective iron chelation.
The formation of hydroxyl radicals was measured by using a 2-deoxyribose oxidative degradation assay (Aruoma, O. I., Deoxyribose Assay for Detecting Hydroxyl Radicals. In Methods in Enzymol., 1994; Vol. 233, pp 57-66; Halliwell, B. et al., Anal. Biochem. 1987, 165, 215-219). In this assay, hydroxyl radicals, generated by reaction of an iron complex with H2O2 in the presence of ascorbic acid as a reducing agent, attack 2-deoxyribose to form malondialdehyde, which upon heating with TBA at low pH yields a pink chromogen (λmax=532 nm). Scavengers that react more effectively with hydroxyl radicals than deoxyribose result in less chromogen formation. Chelators that prevent iron from reacting with H2O2 also result in a decrease in absorption at 532 nm. Many standard buffers such as HEPES and TRIS are hydroxyl radical scavengers; therefore, we performed all assays in 50 mM NaH2PO4 buffered to pH 7.4. Our standard reaction conditions consisted of 1-mL buffered solutions prepared by sequential addition of the following reagents at their final concentrations: chelator (0-400 μM), FeCl3 (10 μM), 2-deoxyribose (15 mM), H2O2 (200 μM) and ascorbic acid (2 mM). The reactions were stirred for 60 min at 37° C., then quenched with 1 mL of TBA (1% w/v in 0.05 M NaOH) and 1 mL of TCA (2.8% w/v in water). After heating to 100° C. for 20 min, the solutions were cooled to room temperature and their absorbance at 532 nm recorded. The data are reported as A/Ao, where A is the absorbance at a 532 nm at a specific chelator concentration, and Ao is the absorbance at 532 nm for the background reaction containing no added chelator. All measurements were done in triplicate, and error bars reflect the standard deviation from triplicate runs.
Data set [3] is described as follows: time course for iron complex formation following addition of excess H2O2 (UV-vis). The format is physicochemical. Conditions: 100 mM H2O2 added to 1.5 mM Fe(NO3)3 and 3.0 mM BSIH in MeOH. As to the method:
FIG. 2. UV-vis spectra showing the formation of [Fe(SIH)]^2+ and [Fe(SIH)2]^+ upon addition of 100 mM H2O2 to a solution of 1.5 mM Fe(NO3)3 and 3.0 mM BSIH in MeOH.
Although the kinetics are complicated by the mono to bis Fe(SIH)x coordination, the data fit a pseudo first-order expression to give kobs=1.6×10^−3 s^−1.

Entries after “also recorded” stand apart in the source; their conditions may differ.

Regarding `CC1(C)OB(c2ccccc2C=NNC(=O)c2ccncc2)OC1(C)C` [BSIH, Isonicotinic acid [2-(4,4,5,5-tetramethyl-[1,3,2]dioxaborolan-2-yl)-benzylidene]-hydrazide], the “iron complex formation after addition of H2O2 (UV-vis spectrum)” value in data set [1] (0.6 mM H2O2 added) is “results in formation of a new spectrum matching that of [Fe(SIH)2]^+; also recorded: results in a spectrum (open circles) that matches that of [Fe(SIH)2]^+”. Moreover, the “complex formation with Fe^3+ (UV-vis spectrum)” value in data set [1] (no H2O2) is “does not form a complex; also recorded: no complex formation”. Further, the “effect of chelator concentration on deoxyribose degradation, A/Ao at 532 nm” value (“effect of chelator concentration” below) in data set [2] was “protects against deoxyribose degradation as well as both DFO and SIH”. Besides, the “kobs (pseudo first-order) for iron complex formation” value in data set [3] was 0.0016 s⁻¹.

Regarding `CC1(C)OB(c2ccccc2C=O)OC1(C)C` [Bsal, (2-formylphenyl)boronic acid pinacol ester], in data set [2], the “effect of chelator concentration” value is listed as “Neither Bsal nor Sal has a significant influence”.

As to `CC(=O)N(O)CCCCCNC(=O)CCC(=O)N(O)CCCCCNC(=O)CCC(=O)N(O)CCCCCN` [DFO, desferrioxamine], the “effect of chelator concentration” value in data set [2] was “decrease”.

With `O=C(O)CN(CCN(CC(=O)O)CC(=O)O)CC(=O)O` [EDTA], the “effect of chelator concentration” value in data set [2] is given as “significant increase”.

Regarding `O=C(NN=Cc1ccccc1O)c1ccncc1` [SIH, salicylaldehyde isonicotinoyl hydrazone], the “effect of chelator concentration” value in data set [2] is “decrease”.
